Data reported in patent US20250115578A1, “AROMATIC FUSED RING NAV1.8 INHIBITOR, AND USE THEREOF” (CHENGDU KANGHONG PHARMACEUTICAL CO., LTD., priority 2022, published 2025).

Assays:
[1] = Stability assay for human liver microsomes in vitro; format: in vitro ADME; conditions: 1 μM compound, 0.5 mg/mL liver microsomes, read-out: Human liver microsome stability T1/2
Protocol: • Human liver microsomes, purchased from Corning or Xenotech, stored in a −80° C. refrigerator. • Nicotinamide adenine dinucleotide phosphate (NADPH), Chem-impex international, 00616 • Control compounds: testosterone, diclofenac, propafenone
• Water bath (HH-60, Guohua, Changzhou, China) • Pipette workstation (PP-550DS, Apricot, Covina, USA) • Centrifuge (5810R, Eppendorf, Hamburg, Germany) • Mass Spectrometer (Sciex API 4000, Singapore) • High Performance Liquid Chromatography (LC 20-AD, Shimadzu, Kyoto, Japan) • Sampler (ADDA, Apricot Designs, California, USA)
• Stock solution: 10 mM in DMSO • Working solution concentration preparation: 10 mM stock solution was diluted to 100 μM with 100% acetonitrile (organic phase content: 99% ACN, 1% DMSO)
Two 96-well incubation plates were named T60 incubation plate and NCF60 incubation plate.
445 μL microsomal working solution (liver microsomal protein concentration: 0.56 mg/mL) was added to the T60 and NCF60 incubation plates respectively, then the incubation plates above were placed in a water bath at 37° C. for pre-incubation approximately 10 minutes.
After the pre-incubation finished, 5 μL of the test compound working solution was added to the T60 and NCF60 incubation plates respectively, and mixed well. 50 μL potassium phosphate buffer was added to each well on the NCF60 incubation plate to start the reaction. 180 μL termination solution (acetonitrile solution containing 200 ng/mL tolbutamide and 200 ng/mL labetalol) and 6 uL working solution of NADPH regeneration system were added to the TO termination plate, and 54 μL samples were removed from the T60 incubation plate to the TO termination plate (TO sample generated). The reaction was initiated by adding 44 μL of NADPH regenerating system working solution per well on the T60 incubation plate. Only 54 μL microsomal working solution, 6 uL NADPH regeneration system working solution, and 180 μL termination solution were added to the Blank plate. Therefore, in the samples of the test or control compounds, the final reaction concentration of the compounds, testosterone, diclofenac and propafenone was 1 μM, the concentration of the liver microsomes was 0.5 mg/mL, and the final concentration of DMSO and acetonitrile in the reaction system was 0.01% (v/v) and 0.99% (v/v), respectively.
After incubation for an appropriate time (e.g. 5, 10, 20, 30, and 60 minutes), 180 μL of termination solution (acetonitrile solution containing 200 ng/mL tolbutamide and 200 ng/mL labetalol) was added to the sample hole of each termination plate, respectively. After that, 60 μL sample was removed from the T60 incubation plate to terminate the reaction.
All sample plates were shaken evenly and centrifuged at 3220×g for 20 min. Then 80 μL supernatant was taken from each well and diluted to 240 μL pure water for LC-MS/MS analysis.
All samples were injected for analysis.

Human Nav1.8 ion channel = Human Nav1.8 ion channel (Homo sapiens (Human), UniProt Q9Y5Y9); assay: Manual patch clamp, Method 2 (HEK293 cells stably expressing human Nav1.8, resting state); format: cell-based; conditions: Method 2, HEK293-hNav1.8, resting state, 1 μM TTX; read-out: IC50 inhibitory activity against hNav1.8
hNav1.8 = hNav1.8 (Homo sapiens (Human), UniProt Q9Y5Y9); assay: Manual patch clamp, Method 1 (CHO cell line stably expressing hNav1.8); format: cell-based; conditions: for inhibition at 0.01 µM: 10 nM; for inhibition at 0.01 µM / inhibition at 0.1 µM: Method 1, CHO-hNav1.8, read-out: Inhibition rate of hNav1.8; for inhibition at 0.1 µM: 100 nM; for IC50: Method 1, CHO-hNav1.8, manual patch clamp, resting state, read-out: IC50 inhibitory activity against hNav1.8
Sequence of hNav1.8 (Q9Y5Y9 whole entry): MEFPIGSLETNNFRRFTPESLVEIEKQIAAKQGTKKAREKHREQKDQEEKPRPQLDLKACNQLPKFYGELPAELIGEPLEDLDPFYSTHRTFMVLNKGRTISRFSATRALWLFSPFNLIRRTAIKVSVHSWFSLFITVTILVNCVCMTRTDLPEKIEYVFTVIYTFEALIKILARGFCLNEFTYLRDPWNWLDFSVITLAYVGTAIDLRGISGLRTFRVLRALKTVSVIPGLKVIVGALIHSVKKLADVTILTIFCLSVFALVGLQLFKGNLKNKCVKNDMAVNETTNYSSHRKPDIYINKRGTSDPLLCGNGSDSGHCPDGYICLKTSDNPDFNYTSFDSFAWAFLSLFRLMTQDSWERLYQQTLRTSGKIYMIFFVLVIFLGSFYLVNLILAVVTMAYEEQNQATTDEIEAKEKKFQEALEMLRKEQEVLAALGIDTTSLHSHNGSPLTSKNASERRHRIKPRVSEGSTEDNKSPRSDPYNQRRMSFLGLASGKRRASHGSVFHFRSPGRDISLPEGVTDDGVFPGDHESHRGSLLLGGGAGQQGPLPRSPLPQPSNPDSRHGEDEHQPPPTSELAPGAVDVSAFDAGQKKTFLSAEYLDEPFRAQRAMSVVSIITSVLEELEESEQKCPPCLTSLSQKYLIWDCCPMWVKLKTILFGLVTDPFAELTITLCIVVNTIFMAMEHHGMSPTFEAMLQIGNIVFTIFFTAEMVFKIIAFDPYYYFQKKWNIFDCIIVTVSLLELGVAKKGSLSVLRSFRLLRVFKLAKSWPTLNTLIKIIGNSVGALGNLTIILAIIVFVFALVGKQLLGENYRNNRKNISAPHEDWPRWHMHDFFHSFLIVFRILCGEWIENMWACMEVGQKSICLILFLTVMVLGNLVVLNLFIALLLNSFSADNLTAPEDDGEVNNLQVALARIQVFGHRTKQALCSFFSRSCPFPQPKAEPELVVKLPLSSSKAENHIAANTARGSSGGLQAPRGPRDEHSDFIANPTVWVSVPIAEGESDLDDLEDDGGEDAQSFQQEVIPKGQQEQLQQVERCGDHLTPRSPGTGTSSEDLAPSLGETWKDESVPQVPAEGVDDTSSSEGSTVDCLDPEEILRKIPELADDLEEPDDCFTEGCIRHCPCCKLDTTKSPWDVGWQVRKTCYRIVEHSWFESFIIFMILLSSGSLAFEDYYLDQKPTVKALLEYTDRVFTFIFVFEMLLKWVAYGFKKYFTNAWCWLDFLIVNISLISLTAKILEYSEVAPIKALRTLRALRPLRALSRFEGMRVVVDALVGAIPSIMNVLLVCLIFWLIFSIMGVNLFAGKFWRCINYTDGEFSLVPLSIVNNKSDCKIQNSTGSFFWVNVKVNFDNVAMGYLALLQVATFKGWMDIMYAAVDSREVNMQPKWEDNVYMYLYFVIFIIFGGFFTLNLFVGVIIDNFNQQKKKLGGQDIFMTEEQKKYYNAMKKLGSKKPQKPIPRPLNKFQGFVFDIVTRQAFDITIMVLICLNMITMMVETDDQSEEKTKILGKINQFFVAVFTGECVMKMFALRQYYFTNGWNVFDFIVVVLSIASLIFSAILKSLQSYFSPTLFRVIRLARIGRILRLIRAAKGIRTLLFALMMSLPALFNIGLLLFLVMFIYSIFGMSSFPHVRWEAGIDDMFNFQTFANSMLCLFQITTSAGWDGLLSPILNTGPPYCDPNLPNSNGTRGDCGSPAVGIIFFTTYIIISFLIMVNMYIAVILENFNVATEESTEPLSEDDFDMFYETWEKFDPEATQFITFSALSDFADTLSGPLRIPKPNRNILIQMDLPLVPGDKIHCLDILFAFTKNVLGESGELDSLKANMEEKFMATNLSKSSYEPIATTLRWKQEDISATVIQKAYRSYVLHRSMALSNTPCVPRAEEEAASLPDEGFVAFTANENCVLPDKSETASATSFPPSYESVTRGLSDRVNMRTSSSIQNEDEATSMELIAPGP

| SMILES | half-life at 1 µM [1] [min] | IC50 (Human Nav1.8 ion channel) [nM] | inhibition at 0.01 µM (hNav1.8) [%] | inhibition at 0.1 µM (hNav1.8) [%] | IC50 (hNav1.8) [nM] |
| --- | --- | --- | --- | --- | --- |
| NC(=O)c1cc(NC(=O)c2cc3ccccc3nc2N2CCCC(F)(F)CC2)ccn1 [Example 08, N-(2-carbamoylpyridin-4-yl)-2-(4,4-difluoroazepan-1-yl)quinoline-3-carboxamide] | 23 | 1.74 | 75.4 | 96.6 | 3.3 |
| NC(=O)c1cc(NC(=O)c2cc3cc(F)c(F)cc3nc2N2CCCC(F)(F)CC2)ccn1 [Example 10, N-(2-carbamoylpyridin-4-yl)-2-(4,4-difluoroazepan-1-yl)-6,7-difluoroquinoline-3-carboxamide] | 92.7 | 0.46 | 95.5 | 99.1 | 0.784 |
| NS(=O)(=O)c1cc(NC(=O)c2cc3ccccc3nc2N2CCCC(F)(F)CC2)ccn1 [Example 14, 2-(4,4-difluoroazepan-1-yl)-N-(2-sulfamoylpyridine-4-yl) quinoline-3-carboxamide] | > 145 | 0.725 | 98 | 99.6 | 0.34 |
| NC(=O)c1cc(NC(=O)c2nc3ccccc3nc2N2CCCC(F)(F)CC2)ccn1 [Example 05, N-(2-carbamoylpyridin-4-yl)-3-(4,4-difluoroazepan-1-yl)quinoxaline-2-carboxamide] | 93.7 | 21.3 | 46.7 | 90.5 | 8.9 |
| NC(=O)c1cc(NC(=O)c2nc3ccccc3nc2N2CCCC(F)(F)CC2)ccc1F [Example 02, N-(3-carbamoyl-4-fluorophenyl)-3-(4,4-difluoroazepan-1-yl)quinoxaline-2-carboxamide] | 58.8 | 2.82 | 66.1 | 96.1 | 5.3 |
| NS(=O)(=O)c1cccc(NC(=O)c2cc3cc(F)c(F)cc3nc2N2CCCC(F)(F)CC2)c1 [Example 16, 2-(4,4-difluoroazepan-1-yl)-6,7-difluoro-N-(3-sulfamoylphenyl) quinoline-3-carboxamide] | 41.3 | 0.071 | 99.8 | 100 | 0.084 |
